Our source for the IC50 values is US20240383904A1, “HETEROCYCLIC COMPOUNDS” (Hoffmann-La Roche Inc., priority 2021, published 2024).

pIC50: −log10 of the molar value.

The target of this assay is T1, MAGL (Homo sapiens, UniProt Q99685).
T1 sequence (Q99685 1-303): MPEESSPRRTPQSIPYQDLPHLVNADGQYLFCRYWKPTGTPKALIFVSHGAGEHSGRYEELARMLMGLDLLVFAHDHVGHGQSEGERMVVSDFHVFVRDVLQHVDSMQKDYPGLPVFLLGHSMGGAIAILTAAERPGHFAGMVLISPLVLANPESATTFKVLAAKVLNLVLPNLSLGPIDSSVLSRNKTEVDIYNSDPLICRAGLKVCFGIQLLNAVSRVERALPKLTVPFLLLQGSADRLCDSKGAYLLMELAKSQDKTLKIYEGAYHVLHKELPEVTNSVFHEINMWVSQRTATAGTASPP
The experiment in a line: 2-AG assay: MAGL inhibitory activity by hydrolysis of 2-arachidonoylglycerol to arachidonic acid, followed by mass spectrometry. It is filed as biochemical. To be noted: 15 min preincubation, 30 min reaction at RT, 8 μM 2-arachidonoylglycerol.
On to `O=C1CCC2(CN(C(=O)N3CC4(CC[C@@H](Cc5ccc(S(=O)(=O)C(F)(F)F)cc5)C4)C3)C2)N1` [Example 222, 2-[(6S)-6-[[4-(trifluoromethylsulfonyl)phenyl]methyl]-2-azaspiro[3.4]octane-2-carbonyl]-2,5-diazaspiro[3.4]octan-6-one], for which the pIC50 (usually −log10 of the IC50, conventionally taken in molar units) was 8.64. With `O=C1CCC2(CN(C(=O)N3CC4(CC[C@H](Cc5cccc(S(=O)(=O)C(F)(F)F)c5)C4)C3)C2)N1` [Example 223, 2-[(6R)-6-[[3-(trifluoromethylsulfonyl)phenyl]methyl]-2-azaspiro[3.4]octane-2-carbonyl]-2,5-diazaspiro[3.4]octan-6-one], the pIC50 is 9.02.

Regarding `O=C1CCC2(CN(C(=O)N3CC4(CC[C@@H](Cc5cccc(S(=O)(=O)C(F)(F)F)c5)C4)C3)C2)N1` [Example 224, 2-[(6S)-6-(3-triflylbenzyl)-2-azaspiro[3.4]octane-2-carbonyl]-2,5-diazaspiro[3.4]octan-6-one], the pIC50 is 9.64. Compared with the last compound, the pIC50 is 0.62 log units higher. With `O=C1CCC2(CN(C(=O)N3CC4(CC(Cn5ccc(C(F)(F)F)n5)C4)C3)C2)N1` [Example 225, 2-[6-[[3-(trifluoromethyl)pyrazol-1-yl]methyl]-2-azaspiro[3.3]heptane-2-carbonyl]-2,5-diazaspiro[3.4]octan-6-one], the pIC50 is 7.77. Compared with the last compound, the pIC50 is 1.87 log units lower.

`O=C1COCC2(CN(C(=O)N3CC4(CCC(Cc5cnc(C(F)(F)F)cn5)CC4)C3)C2)N1` [Example 226, 2-[7-[[5-(trifluoromethyl)pyrazin-2-yl]methyl]-2-azaspiro[3.5]nonane-2-carbonyl]-8-oxa-2,5-diazaspiro[3.5]nonan-6-one] had a pIC50 of 7.34. This pIC50 lies 0.43 log units lower than the previous one.

Consider `O=C1COCC2(CN(C(=O)N3CC4(CC(n5cnc(C6CC6)n5)C4)C3)C2)N1` [Example 227, 2-[6-(3-cyclopropyl-1,2,4-triazol-1-yl)-2-azaspiro[3.3]heptane-2-carbonyl]-8-oxa-2,5-diazaspiro[3.5]nonan-6-one], for which the negative-log IC50 (pIC50) is 5.75. Take `O=C1COCC2(CN(C(=O)N3CC4(CC(c5ccc(C(F)(F)F)cc5F)C4)C3)C2)N1` [Example 228]: the pIC50 was 7.73.

`O=C1COCC2(CN(C(=O)N3CC4(CN(Cc5ccc(S(=O)(=O)C(F)(F)F)cc5)C4)C3)C2)N1` [Example 229, 2-[6-[[4-(trifluoromethylsulfonyl)phenyl]methyl]-2,6-diazaspiro[3.3]heptane-2-carbonyl]-8-oxa-2,5-diazaspiro[3.5]nonan-6-one] gave a negative-log IC50 (pIC50) of 7.11.

For `O=C1COCC2(CN(C(=O)N3CC4(CC(Cn5cc(C(F)(F)F)cn5)C4)C3)C2)N1` [Example 230, 2-[6-[[4-(trifluoromethyl)pyrazol-1-yl]methyl]-2-azaspiro[3.3]heptane-2-carbonyl]-8-oxa-2,5-diazaspiro[3.5]nonan-6-one], the negative logarithm of the IC50 (pIC50) was 7.23. `O=C1COCC2(CN(C(=O)N3CC4(CC(Cc5ccc(C(F)(F)F)nn5)C4)C3)C2)N1` [Example 231, 2-[6-[[6-(trifluoromethyl)pyrida-zin-3-yl]methyl]-2-azaspiro[3.3]heptane-2-carbonyl]-8-oxa-2,5-diazaspiro[3.5]nonan-6-one] had a pIC50 of 6.59. In turn, `O=C1COCC2(CN(C(=O)N3CC4(CC(Cc5cnc(C(F)(F)F)nc5)C4)C3)C2)N1` [Example 232, 2-[6-[[2-(trifluoromethyl)pyrimi-din-5-yl]methyl]-2-azaspiro[3.3]heptane-2-carbonyl]-8-oxa-2,5-diazaspiro[3.5]nonan-6-one] gave a pIC50 of 6.64.

Compound `O=C1COCC2(CN(C(=O)N3CC4(CCN(Cc5ccc(S(=O)(=O)C(F)(F)F)cc5)C4)C3)C2)N1` [Example 233, 2-[7-[[4-(trifluoromethylsulfonyl)phenyl]methyl]-2,7-diazaspiro[3.4]octane-2-carbonyl]-8-oxa-2,5-diazaspiro[3.5]nonan-6-one] showed a pIC50 of 6.58. As for `O=C1COCC2(CN(C(=O)N3CC4(CC[C@@H](Cc5ccc(S(=O)(=O)C(F)(F)F)cc5)C4)C3)C2)N1` [Example 234, 2-[(6S)-6-[[4-(trifluoromethylsulfonyl)phenyl]methyl]-2-azaspiro[3.4]octane-2-carbonyl]-8-oxa-2,5-diazaspiro[3.5]nonan-6-one], the pIC50 is 8.07. In the case of `O=C1COCC2(CN(C(=O)N3CC4(CC[C@H](Cc5ccc(S(=O)(=O)C(F)(F)F)cc5)C4)C3)C2)N1` [Example 235, 2-[(6R)-6-[[4-(trifluoromethylsulfonyl)phenyl]methyl]-2-azaspiro[3.4]octane-2-carbonyl]-8-oxa-2,5-diazaspiro[3.5]nonan-6-one], the negative-log IC50 (pIC50) was 8.13. The pIC50 values of the last two compounds are within 0.2 log units of each other. As for `O=C1COCC2(CN(C(=O)N3CC4(CC[C@@H](Cc5cccc(S(=O)(=O)C(F)(F)F)c5)C4)C3)C2)N1` [Example 236, 2-[(6S)-6-[[3-(trifluoromethylsulfonyl)phenyl]methyl]-2-azaspiro[3.4]octane-2-carobnyl]-8-oxa-2,5-diazaspiro[3.5]nonan-6-one], the pIC50 is 8.67. Compared with the last compound, the pIC50 is 0.54 log units higher.

Consider `O=C1COCC2(CN(C(=O)N3CC4(CC[C@H](Cc5cccc(S(=O)(=O)C(F)(F)F)c5)C4)C3)C2)N1` [Example 237, 2-[(6R)-6-[[3-(trifluoromethylsulfonyl)phenyl]methyl]-2-azaspiro[3.4]octane-2-carbonyl]-8-oxa-2,5-diazaspiro[3.5]nonan-6-one], for which the pIC50 is 8.50. In the case of `CS(=O)(=O)c1cc(CC2CC3(C2)CN(C(=O)N2CC4(COCC(=O)N4)C2)C3)cc(C(F)(F)F)c1` [Example 238, 2-[6-[[3-methylsulfonyl-5-(trifluoromethyl)phenyl]methyl]-2-azaspiro[3.3]heptane-2-carbonyl]-8-oxa-2,5-diazaspiro[3.5]nonan-6-one], the pIC50 is 7.78.

In the case of `O=C1COCC2(CN(C(=O)N3CC4(CC(Cn5ccc(C(F)(F)F)n5)C4)C3)C2)N1` [Example 239, 2-[6-[[3-(trifluoromethyl)pyrazol-1-yl]methyl]-2-azaspiro[3.3]heptane-2-carbonyl]-8-oxa-2,5-diazaspiro[3.5]nonan-6-one], the pIC50 was 7.28. The compound `O=C1COCC2(CN(C(=O)N3CC4(CCN(Cc5ccc(C(F)(F)F)nc5)C4)C3)C2)N1` [Example 240, 2-[7-[[6-(trifluoromethyl)-3-pyridyl]methyl]-2,7-diazaspiro[3.4]octane-2-carbonyl]-8-oxa-2,5-diazaspiro[3.5]nonan-6-one] showed a pIC50 of 5.91. As for `O=C1COCC2(CN(C(=O)N3CC4(CCN(Cc5ccc(C(F)(F)F)cn5)C4)C3)C2)N1` [Example 241, 2-[7-[[5-(trifluoromethyl)-2-pyridyl]methyl]-2,7-diazaspiro[3.4]octane-2-carbonyl]-8-oxa-2,5-diazaspiro[3.5]nonan-6-one], the pIC50 is 6.03.

Compound `N#Cc1cc(C(F)(F)F)ccc1CC1CC2(C1)CN(C(=O)N1CC3(COC(=O)N3)C1)C2` [Example 242, 2-[[2-(6-oxo-7-oxa-2,5-diazaspiro[3.4]octane-2-carbonyl)-2-azaspiro[3.3]heptan-6-y]methyl]-5-(trifluoroemthyl)benzoni-trile] had a pIC50 of 10.22. This pIC50 lies 4.19 log units higher than the previous one.

`N#Cc1cc(CC2CC3(C2)CN(C(=O)N2CC4(COC(=O)N4)C2)C3)cnc1C(F)(F)F` [Example 243, 5-[[2-(6-oxo-7-oxa-2,5-diazaspiro[3.4]octane-2-carbonyl)-2-azaspiro[3.3]heptan-6-yl]methyl]-2-(trifluoromethyl)pyridine-3-carbonitrile] showed a pIC50 of 9.22. `NC(=O)c1ccc(CC2CC3(C2)CN(C(=O)N2CC4(COC(=O)N4)C2)C3)cc1OC(F)(F)F` [Example 244, 4-[[2-(6-oxo-7-oxa-2,5-diazaspiro[3.4]octane-2-carbonyl)-2-azaspiro[3.3]heptan-6-yl]methyl]-2-(trifluoromethoxy)benz-amide] had a pIC50 of 9.03. For the compound `NC(=O)c1cc(CC2CC3(C2)CN(C(=O)N2CC4(COC(=O)N4)C2)C3)ccc1OC(F)(F)F` [Example 245, 5-[[2-(6-oxo-7-oxa-2,5-diazaspiro[3.4]octane-2-carbonyl)-2-azaspiro[3.3]heptan-6-yl]methyl]-2-(trifluoromethoxy)benz-amide], the pIC50 was 8.82.

In the case of `Cn1nc(C(F)(F)F)cc1CC1CC2(C1)CN(C(=O)N1CC3(CCC(=O)N3)C1)C2` [Example 246, 2-[6-[[2-methyl-5-(trifluoromethyl)pyrazol-3-yl]methyl]-2-azaspiro[3.3]heptane-2-carbonyl]-2,5-diazaspiro[3.4]octan-6-one], the pIC50 was 8.21.

As for `N#Cc1cnn(CC2CC3(C2)CN(C(=O)N2CC4(CCC(=O)N4)C2)C3)c1` [Example 247, 1-[[2-(6-oxo-2,5-diazaspiro[3.4]octane-2-carbonyl)-2-azaspiro[3.3]heptan-6-yl]methyl]pyrazole-4-carbonitrile], the negative-log IC50 (pIC50) was 6.51. Against the preceding compound, the pIC50 is 1.70 log units lower. `O=C1CCC2(CN(C(=O)N3CC4(CC(Cc5cnn(CC(F)(F)F)c5)C4)C3)C2)N1` [Example 248, 2-[6-[[1-(2,2,2-trifluoroethyl)pyrazol-4-yl]methyl]-2-azaspiro[3.3]heptane-2-carbonyl]-2,5-diazaspiro[3.4]octan-6-one] had a pIC50 of 7.48. For `O=C1CCC2(CN(C(=O)N3CC4(CC(Cn5ccc(C(F)(F)F)cc5=O)C4)C3)C2)N1` [Example 249, 2-[6-[[2-oxo-4-(trifluoromethyl)-1-pyridyl]methyl]-2-azaspiro[3.3]heptane-2-carbonyl]-2,5-diazaspiro[3.4]octan-6-one] the value was 8.67. Regarding `N#Cc1ccc(CC2CC3(C2)CN(C(=O)N2CC4(CCC(=O)N4)C2)C3)c(F)c1` [Example 251, 3-fluoro-4-[[2-(6-oxo-2,5-diazaspiro[3.4]octane-2-carbonyl)-2-azaspiro[3.3]heptan-6-yl]methyl]benzonitrile], the pIC50 was 9.22.
